Values of other authors as cited in patent EP1541129A1, “Pharmaceutical effervescent formulation comprising amoxycillin and clavulanic acid” (Cimex AG, priority 2003, dated 2005).

Details: freely water-soluble

## O=C(O)[C@H]1/C(=C/CO)O[C@@H]2CC(=O)N21 [Potassium clavulanate, potassium clavulanate]
  solubility in water: about 1 part of water for 1 part of solute
